Values of other authors in PMC4014123 (Acta Crystallographica Section D: Biological Crystallography, 2014).

Tested on: I223R/H275Y dual mutation of neuraminidase from influenza A H1N1
Conditions: I223R/H275Y dual mutant vs wild type; ref van der Vries et al., 2012; cited from earlier work

For `CCOC(=O)C1=C[C@@H](OC(CC)CC)[C@H](NC(C)=O)[C@@H](N)C1` [oseltamivir], the “resistance towards oseltamivir relative to wild type” value is given as “approximately 7500 times”.
